According to US9775835B2 (priority 2012, dated 2017):
Read-outs that look alike come from different tables or passages of the source.

Assays:
[1] = tested on: HIV (strain NL4-3); assay: HIV cell based assay (Level 1 / Level 2 Screen; CFAR assay): 293T transfection, TZM-bl infection, luciferase; design: species or system HIV-1; details: for Anti-HIV bioactivity of hits and analogs: second round with analogs, FIGS. 12 A, B, C
Protocol: Five hundred of the 1000 small molecule hits, having the highest binding affinity with the ASL's hypermodifications, were selected for screening at high concentration against HIV infected mammalian cells (FIG. 10). Briefly, toxicity was first assessed in 293T cells in 96-well plates (10^4 cells/well) by adding 50, 5 and 0.5 μM of small molecules in triplicate at each concentration. After two days, cells were assessed for poor growth versus control cells. Once the concentration of the small molecules at which the cells looked normal was established, these molecules were screened for anti-HIV activity through a transfection/infection protocol. An infectious molecular clone of HIV (strain NL4-3) was transfected into 293T cells using FuGene6 (Roche). After four hours, the cells were split into 96-well plates (10^4 cells/well) and the small molecules were added at the appropriate concentration in triplicate. After 48 hours of incubation of cells in the presence of the small molecules, virus-containing medium (50 μL) was removed from each well and transferred into a fresh 96-well plate containing TZM-bl cells for infection (10^4 cells/well). After 48 hours, the cells were assayed for luciferase expression. Controls were untransfected 293T cells and transfected cells without the small molecules added. Results from various small molecules with the best inhibition of HIV are shown in (FIG. 10). Active small molecules 2493, 9324, 8317, 2725, 3643, 2491, 12327, 14094, 12204, 12744, 12745, 12542, 18198, 18200, 8391, 6188, 16286 and 2712 have 80-95% inhibitory effect on the HIV propagation. These small molecules with bioactivity against HIV propagation are an example of some the hits further tested in a concentration-dependent screening.
Bioactive molecules selected in Level 1 Screen were tested using the cell based assay in a concentration (dose)-dependent manner for their ability to inhibit HIV propagation (FIG. 11). The HIV cell based assay experimental protocol described in Level 1 screen was used to conduct the Level 2 Screen. […] In addition to the concentration-dependent, cell based assay, the inhibitory activities of the active molecules identified in Screen Level 1 were also assessed using the MBS assay. This assay has been developed and standardized to mimic the unique properties characteristic of the HIV viral protein recruitment and preparation of the human host tRNA3^Lys as primer of reverse transcription. Thus, the cell-based assay and the “MBS” assay were used to confirm the mechanism of action of the hits against the functional interaction of htRNA3^Lys with HIV proteins. The MBS is a “mix and measure” assay that consists of the formation of a complex between the fluorescent peptide P6 and the fully modified anticodon stem and loop of htRNA3^Lys. The concentration of the small molecules was 150 μM i.e. 300 fold of that of P6. […] In the presence of various selected active molecules, inhibition of the complex between P6 and hASL3^Lys was observed (FIGS. 12 A, B and C). The results of these experiments allowed identification and concentration towards a smaller pool of active molecules.
In order to confirm the activity of the small molecules showing potential anti-HIV inhibition, a second round of testing using their analogs (˜20 analogs were chosen for each selected active small molecule) was initiated using the same cell based assay employed in Level 1 Screen and Level 2 Screen. […] The quality and structure of the small molecule hits and their respective analogs were confirmed by NMR and Liquid Chromatography coupled with Mass Spectrometry (LC-MS).
Dose response data of the active molecules were generated by running the biochemical and functional assays at varying concentration. The potency properties which is one of the characteristics that defines a hit, is evaluated based on the criteria that potency (IC50)<3 μM in the MBS assay and EC50<10 μM in the HIV cell based assay (See FIG. 19). […]

[2] = tested on: HIV strains NLA3, HXB and JR-CSF; assay: HIV strain screening; type: cell-based; details: FIG. 13
Excerpt: Small molecules were also screened for their effectiveness against various HIV strains. For example, the effects of small molecules of interest on HIV strains NLA3, HXB and JR-CSF were studied. […] FIG. 13. Further, small molecules were screened for their effectiveness against other HIV drugs that have different modes of action. For example, various small molecules of interest in the initial screen were studied for their effectiveness relative to protease inhibitors (Saquinavir by Roche) and reverse-transciptase inhibitors (Nevirapine by Boehringer Ingelheim) against various strains, including tri-therapy resistant HIV strains. FIGS. 13 and 14. In one specific study, the effect of small molecules on cell culture HIV viral propagation was compared to no drug (by reviewing % Relative Luminescence Unit (RLU)). Small molecules were also compared to Saquinavir and Nevirapine in both standard HIV strain and Tri-therapy resistant HIV strains. FIG. 14.

[3] = tested on: hASL3^Lys-mcm^5s^2U34;ms^2t^6A37;Ψ39; assay: Mechanism based secondary (MBS) assay: competition with fluorescent peptide P6 for hASL3^Lys; type: binding, human; details: complex formation in the absence of small molecules
Excerpt: In order to identify a set of small molecule ‘hits’, that inhibit viral recruitment or viral preparation of htRNA3^Lys, the inventors developed a microtiter plate-based fluorescence assay. This mechanism based secondary (MBS) assay uses selected peptides that best mimic HIV proteins in their binding to htRNA3^Lys. The present invention uses the above-mentioned MBS assay to identify small molecule bioactive hits against a host cell RNA interaction with HIV proteins critical to viral replication. These hits can now be optimized into a completely different class of HIV drug, one that is far less likely to elicit drug resistance. The present invention is exploiting affinity selected peptides as tools to investigate and understand RNA chemistry and structure, including naturally occurring modifications, as identity elements for HIV protein recognition of the human tRNA3^Lys.
MBS assay is based on phage display selected peptides that mimic HIV proteins by binding with high affinity and specificity to only the portion of the htRNA3^Lys of interest, the hASL3^Lys (Graham et al., J. Mol. Biol. 2011, 410(4):698-715; Vendeix et al., J. Mol. Biol. 2012, 416(4):467-85). […] The MBS assay is readily amenable to thermodynamic and structural analyses and nucleotide and peptide amino acid changes for optimization. […]

[4] = biological target: unmodified ASL3^Lys; assay: Fluorescence quenching binding of P6 / NCp7 to unmodified ASL3^Lys; design: species or system human; details: modification-dependency
Excerpt: (§1) The phage-display selection of peptides was completed (randomized 15 mers, and 16 mers with cysteines at two sites for the possible generation of Zn^+2 ‘knuckles’ structures reminiscent of the HIV protein, NCp7) against the fully modified anticodon stem and loop domain of htRNA3^Lys with 5-methoxycarbonylmethyl-2-thiouridine at position 34, 2-methylthio-N^6-threonylcarbamoyladenosine-37 and pseudouridine-39 (hASL3^Lys-mcm^5s^2U34;ms^2t^6A37;Ψ39) covalently attached to microtiter avidin-plates with biotin. In reiterative and competitive phage-display library selections, the two libraries yielded 20 recurring peptide sequences that had reasonable solubility among 155 sequenced clones (Table 2). The hASL3^Lys binding properties of the peptides were characterized using chemically synthesized peptides with an N-terminal fluorescent reporter. One strongly binding, highly specific peptide (P6) was selected. Its ability to mimic the binding of the natural HIV protein, NCp7, to modified htRNA3^Lys was validated. […] Footprinting of P6 on the modified hASL3^Lys by high resolution mass spectrometry indicated conclusively that the anticodon and 3′-adjacent side of the loop were protected (Graham et al., supra).

[5] = tested on: hASL3^Lys; assay: Circular dichroism of NCp7 and P6 complexes with hASL3^Lys; design: species or system human; details: decrease in CD ellipticity with increasing amounts, FIG. 7
[6] = biological target: hASL3^Lys-mcm^5s^2U34;ms^2t^6A37;Ψ39; assay: Fluorescence quenching binding of P6 / NCp7 to fully modified hASL3^Lys; design: species or system human; details: FIGS. 5 and 6
Excerpt: as §1

[7] = Human immunodeficiency virus 1, NL43, read-out: IC 50 (units)

Compound: CC(C)c1ccc(OCC(=O)N2C(C)CCCC2C)c(Br)c1 (stereo not shown) [Compound 1668-1, 2-(2-bromo-4-isopropylphenoxy)-1-(2,6-dimethylpiperidin-1-yl)ethanone]
- IC50 [1, 7]: 34 µM

Compound: CC1CCCC(C)N1C(=O)COc1ccc(C(C)(C)C)cc1Br (stereo not shown) [Compound 1668-12, 2-(2-bromo-4-tert-butylphenoxy)-1-(2,6-dimethylpiperidin-1-yl)ethanone]
- Anti-HIV bioactivity of hits and analogs [1]: showed potential anti-HIV inhibition

Compound: CC1(C)CC(NC(=O)COc2ccc3ccccc3c2Br)CC(C)(C)N1 [Compound 1668-17, 2-(1-bromonapthalen-2-yloxy)-N-(2,2,6,6-tetramethylpiperidin-4-yl)acetamide]
- Anti-HIV bioactivity of hits and analogs [1]: some of the most bioactive inhibitors

Compound: Cc1cc(NC(=O)C(=O)NC2CC(C)(C)NC(C)(C)C2)ccc1Br [Compound 1668-18, N^1-(4-bromo-3-methylphenyl)-N^2-(2,2,6,6-tetramethylpiperidin-4-yl)oxalimide]
- Inhibiting infection of HIV strains relative to no addition of drug [2]: particularly effective
- Anti-HIV bioactivity of hits and analogs [1]: some of the most bioactive inhibitors

Compound: NS(=O)(=O)c1cccc(NC(=O)Nc2ccc(Cl)c(Cl)c2)c1 [Compound 2491, 3-(3-(3,4-dichlorophenyl)ureido)benzenesulfon-amide]
- IC50 ([1]; Human immunodeficiency virus 1, NL43, other small molecule table, assay not given, values lie in the CFAR range of b151, read-out: IC 50): 75 µM

Compound: COCCNC(=O)c1ccc2c(=O)n(CCC3=CCCCC3)c(=S)[nH]c2c1 [Compound 6188-1, 3-(2-cyclohexenylethyl)-N-(2-methoxyethyl)-4-oxo-2-thioxo-1,2,3,4-tetrahydroquinazoline-7-carboxamide]
- IC50 ([1]; Human immunodeficiency virus 1, NL43, quinazoline table, assay not given, value lies in the CFAR range of b151, read-out: IC50): 3.3 µM

Compound: O=[N+]([O-])c1cccc(Nc2nc(O)nc(N3CCCCC3)n2)c1 [Compound 8391-5, 4-(3-nitrophenylamino)-6-(piperidin-1-yl)-1,3,5-triazin-2-ol]
- Anti-HIV bioactivity of hits and analogs [1]: showed potential anti-HIV inhibition

Compound: c1ccc(Nc2nc(Nc3ccccc3)nc(N3CCNCC3)n2)cc1 [Compound 8391-6, N^2,N^4-diphenyl-6-(piperazin-1-yl)-1,3,5-triazine-2,4-diamine]
- IC50 [1, 7]: 5.3 µM

Compound: COc1cc2c(cc1OC)C1=C(C#N)CC/C(=N\C(=O)c3ccco3)N1CC2 [Compound 18200-2, (E)-N-(1-cyano-9,10-dimethoxy-6,7-dihydro-2H-pyrido[2,1-a]isoquinolin-4(3H)-ylidene)furan-2-carboxamide]
- Anti-HIV bioactivity of hits and analogs [1]: some of the most bioactive inhibitors

Compound: COc1cc2c(cc1OC)C1=C(C#N)CCC(=O)N1CC2 [Compound 18200-3, 9,10-dimethoxy-4-oxo-3,4,6,7-tetrahydro-2H-pyrido[2,1-a]isoquinoline-1-carbonitrile]
- Anti-HIV bioactivity of hits and analogs [1]: some of the most bioactive inhibitors

Compound: COc1cc2c(cc1OC)C1=C(C#N)CC/C(=N\C(=O)c3ccc(Cl)cc3)N1CC2 [Compound 18200-4, (E)-4-chloro-N-(1-cyano-9,10-dimethoxy-6,7-dihydro-2H-pyrido[2,1-a]isoquinolin-4(3H)-ylidene)benzamide]
- IC50 ([1]; Human immunodeficiency virus 1, NL43, isoquinoline table, assay not given, value lies in the CFAR range of b151, read-out: IC 50): 14 µM

Compound: RVTHHAFLGAHRTVG [Compound P6]
- Quenching of the fluorescence of the fluorescein-tagged P6 by hASL3^Lys [3]: ~80%
- Kd with unmodified ASL3^Lys [4]: incalculable
- Effect on hASL3^Lys structure by circular dichroism [5]: denature the hASL3^Lys structure
- Kd [6]: 450 ± 50 nM
